How the values were obtained:
late watergrass = assay: Test Example 1: herbicidal activity, application before weed generation under submerged conditions (Table 16, symbol A); assay type: in vivo, late watergrass (Echinochloa oryzicola); conditions: amount of applied herbicide 320 g/ha
Summary of the method: (§1)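 Submerged Wagner pots (alluvial soil, 4 cm water) sown with weed seeds and planted with 2.5-leaf rice seedlings; emulsifiable concentrate diluted in water applied to water surface on sowing day. Held in greenhouse at 25-30 °C; injury scored 0-5 by herbicidal rate after three weeks.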

Japanese bulrush = assay: Test Example 1: herbicidal activity, application before weed generation under submerged conditions (Table 16, symbol B); assay type: in vivo, Japanese bulrush (Schoenoplectus juncoides); conditions: amount of applied herbicide 320 g/ha
Summary of the method: as §1

oval-leafed pondweed [1] = assay: Test Example 1: herbicidal activity, application before weed generation under submerged conditions (Table 16, symbol C); assay type: in vivo, oval-leafed pondweed (Monochoria vaginalis); conditions: amount of applied herbicide 320 g/ha
Summary of the method: as §1

oval-leafed pondweed [2] = assay: Test Example 2: herbicidal activity, application during weed generation under submerged conditions (Table 17, symbol C); assay type: in vivo, oval-leafed pondweed (Monochoria vaginalis); conditions: AAH 320 g/ha; application during weed generation, submerged conditions
Summary of the method: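 Mixed weed seedlings in alluvial soil under a 4 cm water layer, greenhouse-grown at 25–30° C. Compound given as a diluted emulsion into the floodwater at the 1–2 leaf stage; response graded after three weeks.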

Chinese sprangletop = assay: Test Example 3: herbicidal effect by foliage application, Wagner pot (Table 18, symbol D); assay type: in vivo, chinese sprangletop (Leptochloa chinensis); conditions: amount of applied herbicide 320 g/ha
Summary of the method: (§2)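 Plants were sown in alluvial soil held under 0.1–0.5 cm standing water and grown 14 days in a greenhouse at 25–30 °C. An emulsifiable formulation, water-diluted to the set dose, was then sprayed onto the foliage, and effects were scored three weeks later using previously defined criteria.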

rice flat sedge = assay: Test Example 3: herbicidal effect by foliage application, Wagner pot (Table 18, symbol E); assay type: in vivo, rice flat sedge (Cyperus iria); conditions: amount of applied herbicide 320 g/ha
Summary of the method: as §2

southern crabgrass [3] = assay: Test Example 4: herbicidal effect by soil treatment (Table 19, symbol F); assay type: in vivo, southern crabgrass (Digitaria ciliaris); conditions: amount of applied herbicide 320 g/ha
Summary of the method: (§3)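 Step 1: sow seeds in sterilized diluvial soil, cover ~1.5 cm. Step 2: spray diluted emulsion onto soil surface at predetermined rate. Step 3: greenhouse, 25–30° C, three weeks. Step 4: grade effect on each plant by earlier criteria.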

windgrass [4] = assay: Test Example 4: herbicidal effect by soil treatment (Table 19, symbol L); assay type: in vivo, windgrass (Apera spica-venti); conditions: amount of applied herbicide 320 g/ha
Summary of the method: as §3

redroot pigweed = assay: Test Example 4: herbicidal effect by soil treatment (Table 19, symbol N); assay type: in vivo, redroot pigweed (Amaranthus retroflexus); conditions: amount of applied herbicide 320 g/ha
Summary of the method: as §3

persian speedwell = assay: Test Example 4: herbicidal effect by soil treatment (Table 19, symbol R); assay type: in vivo, Persian speedwell (Veronica persica); conditions: amount of applied herbicide 320 g/ha
Summary of the method: as §3

southern crabgrass [5] = assay: Test Example 5: herbicidal effect by foliage application, plastic box (Table 20, symbol F); assay type: in vivo, southern crabgrass (Digitaria ciliaris); conditions: foliage application, 320 g/ha, three weeks after application
Summary of the method: (§4)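 Foliar spray test: emulsion formulation diluted in water to a set application rate, sprayed onto 14-day-old plants raised in diluvial soil at 25° C to 30° C under glass. Both herbicidal effect and crop effect rated visually three weeks later.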

green foxtail = assay: Test Example 5: herbicidal effect by foliage application, plastic box (Table 20, symbol G); assay type: in vivo, green foxtail (Setaria viridis); conditions: foliage application, 320 g/ha, three weeks after application
Summary of the method: as §4

barnyard grass = assay: Test Example 5: herbicidal effect by foliage application, plastic box (Table 20, symbol H); assay type: in vivo, barnyard grass (Echinochloa crus-galli); conditions: foliage application, 320 g/ha, three weeks after application
Summary of the method: as §4

wild oat = assay: Test Example 5: herbicidal effect by foliage application, plastic box (Table 20, symbol I); assay type: in vivo, wild oat (Avena fatua); conditions: foliage application, 320 g/ha, three weeks after application
Summary of the method: as §4

windgrass [6] = assay: Test Example 5: herbicidal effect by foliage application, plastic box (Table 20, symbol L); assay type: in vivo, windgrass (Apera spica-venti); conditions: foliage application, 320 g/ha, three weeks after application
Summary of the method: as §4

lambsquarters = assay: Test Example 5: herbicidal effect by foliage application, plastic box (Table 20, symbol O); assay type: in vivo, lambsquarters (Chenopodium album); conditions: foliage application, 320 g/ha, three weeks after application
Summary of the method: as §4

Row | SMILES | Herbicidal effect, A: late watergrass (late watergrass) | Herbicidal effect, B: Japanese bulrush (Japanese bulrush) | Herbicidal effect, C: oval-leafed pondweed (oval-leafed pondweed [1]) | herbicidal effect rating, C: oval-leafed pondweed (oval-leafed pondweed [2]) | Herbicidal effect on D (Chinese sprangletop), foliage application (Chinese sprangletop) | Herbicidal effect on E (rice flat sedge), foliage application (rice flat sedge) | F: southern crabgrass, herbicidal effect grade (southern crabgrass [3]) | L: windgrass, herbicidal effect grade (windgrass [4]) | N: redroot pigweed, herbicidal effect grade (redroot pigweed) | R: persian speedwell, herbicidal effect grade (persian speedwell) | herbicidal effect on southern crabgrass (F) (southern crabgrass [5]) | herbicidal effect on green foxtail (G) (green foxtail) | herbicidal effect on barnyard grass (H) (barnyard grass) | herbicidal effect on wild oat (I) (wild oat) | herbicidal effect on windgrass (L) (windgrass [6]) | herbicidal effect on lambsquarters (O) (lambsquarters)
1 | CCOc1ccc2c(-c3c(O)c(C)nn(C)c3=O)c(-c3ccccc3OC)sc2c1Cl [7-003] | 2 (Herbicidal rate of 20% or more and less than 40%) | 3 (Herbicidal rate of 40% or more and less than 70%) | 0 (Herbicidal rate of 5% or less (almost no effect)) | 0 (Herbicidal rate of 5% or less (almost no effect)) | 3 (Herbicidal rate of 40% or more and less than 70%) | 5 (Herbicidal rate of 90% or more (almost completely withered)) | 0 (Herbicidal rate of 5% or less (almost no effect)) | 0 (Herbicidal rate of 5% or less (almost no effect)) | 5 (Herbicidal rate of 90% or more (almost completely withered)) | 5 (Herbicidal rate of 90% or more (almost completely withered)) | 1 (Herbicidal rate of 5% or more and less than 20%) | 4 (Herbicidal rate of 70% or more and less than 90%) | 2 (Herbicidal rate of 20% or more and less than 40%) | 0 (Herbicidal rate of 5% or less (almost no effect)) | 3 (Herbicidal rate of 40% or more and less than 70%) | 5 (Herbicidal rate of 90% or more (almost completely withered))
2 | CCOc1ccccc1-c1sc2c(Cl)c(OCC)ccc2c1-c1c(O)c(C)nn(C)c1=O [7-004] | 3 (Herbicidal rate of 40% or more and less than 70%) | 3 (Herbicidal rate of 40% or more and less than 70%) | 0 (Herbicidal rate of 5% or less (almost no effect)) | 2 (Herbicidal rate of 20% or more and less than 40%) | 5 (Herbicidal rate of 90% or more (almost completely withered)) | 5 (Herbicidal rate of 90% or more (almost completely withered)) | 3 (Herbicidal rate of 40% or more and less than 70%) | 0 (Herbicidal rate of 5% or less (almost no effect)) | 4 (Herbicidal rate of 70% or more and less than 90%) | 5 (Herbicidal rate of 90% or more (almost completely withered)) | 5 (Herbicidal rate of 90% or more (almost completely withered)) | 5 (Herbicidal rate of 90% or more (almost completely withered)) | 5 (Herbicidal rate of 90% or more (almost completely withered)) | 0 (Herbicidal rate of 5% or less (almost no effect)) | 0 (Herbicidal rate of 5% or less (almost no effect)) | 4 (Herbicidal rate of 70% or more and less than 90%)
3 | Cc1nn(C)c(=O)c(-c2c(-c3ccc(OCC(F)(F)F)cc3)oc3ccccc23)c1O [8-005] | 5 (Herbicidal rate of 90% or more (almost completely withered)) | 5 (Herbicidal rate of 90% or more (almost completely withered)) | 4 (Herbicidal rate of 70% or more and less than 90%) | 3 (Herbicidal rate of 40% or more and less than 70%) | 4 (Herbicidal rate of 70% or more and less than 90%) | 4 (Herbicidal rate of 70% or more and less than 90%) | 4 (Herbicidal rate of 70% or more and less than 90%) | 0 (Herbicidal rate of 5% or less (almost no effect)) | 5 (Herbicidal rate of 90% or more (almost completely withered)) | 4 (Herbicidal rate of 70% or more and less than 90%) | 5 (Herbicidal rate of 90% or more (almost completely withered)) | 5 (Herbicidal rate of 90% or more (almost completely withered)) | 5 (Herbicidal rate of 90% or more (almost completely withered)) | 0 (Herbicidal rate of 5% or less (almost no effect)) | 3 (Herbicidal rate of 40% or more and less than 70%) | 5 (Herbicidal rate of 90% or more (almost completely withered))
4 | CSCCOc1ccc(-c2oc3ccccc3c2-c2c(O)c(C)nn(C)c2=O)cc1 [8-008] | 5 (Herbicidal rate of 90% or more (almost completely withered)) | 5 (Herbicidal rate of 90% or more (almost completely withered)) | 4 (Herbicidal rate of 70% or more and less than 90%) | 2 (Herbicidal rate of 20% or more and less than 40%) | 4 (Herbicidal rate of 70% or more and less than 90%) | 4 (Herbicidal rate of 70% or more and less than 90%) | 3 (Herbicidal rate of 40% or more and less than 70%) | 0 (Herbicidal rate of 5% or less (almost no effect)) | 4 (Herbicidal rate of 70% or more and less than 90%) | 5 (Herbicidal rate of 90% or more (almost completely withered)) | 5 (Herbicidal rate of 90% or more (almost completely withered)) | 5 (Herbicidal rate of 90% or more (almost completely withered)) | 5 (Herbicidal rate of 90% or more (almost completely withered)) | 5 (Herbicidal rate of 90% or more (almost completely withered)) | 4 (Herbicidal rate of 70% or more and less than 90%) | 3 (Herbicidal rate of 40% or more and less than 70%)
